Like-named read-outs stand apart in the source and are kept apart here.
Test: Solubility of pesticide powders in solvents, 2% stepwise increments
Conditions: for Dissolving power: compared with comparative solvents DMSO and DMAA810, for each of the active ingredients evaluated
Description: The solubility of various pesticides in these solvents or solvent components are evaluated.

[1] = solvent DMAA810, last concentration before powder not dissolved, 2% steps, no more than 2% lower than actual solubility
[2] = solvent DMSO, last concentration before powder not dissolved, 2% steps, no more than 2% lower than actual solubility
[3] = solvent DEAC (N,N-diethyl acetamide), last concentration before powder not dissolved, 2% steps, no more than 2% lower than actual solubility
[4] = solvent DMPA (N,N-dimethyl propanamide), last concentration before powder not dissolved, 2% steps, no more than 2% lower than actual solubility

Compound | Solubility in DEAC [weight %] | Solubility in DMPA [weight %] | Solubility in DMAA810 [1] [weight %] | Solubility in DMSO [2] [weight %] | Solubility in DEAC [3] [weight %] | Solubility in DMPA [4] [weight %] | Dissolving power | Solubility in DMAA810 [weight %] | Solubility in DMSO [weight %]
CC(C)(C)C(O)(CCc1ccc(Cl)cc1)Cn1cncn1 (stereo not drawn) [Tebuconazole] | 51 | 54 | 37 | 32 |  |  |  |  | 
Cc1c(COC(=O)[C@@H]2[C@H](/C=C(\Cl)C(F)(F)F)C2(C)C)cccc1-c1ccccc1 (racemic) [Bifenthrin] |  |  | 33 | 7 | 50 | 47 |  |  | 
CCCCC(C#N)(Cn1cncn1)c1ccc(Cl)cc1 (stereo not drawn) [Myclobutanil] |  |  | 42 | 57 | 57 | 58 |  |  | 
CCC(=O)N(C)C [DMPA, N,N-dimethyl propanamide] |  |  |  |  |  |  | stronger |  | 
CC(C)N1C(=O)N(c2ccccc2)CS/C1=N\C(C)(C)C [Buprofezin] | 31 | 33 |  |  |  |  |  | 22 | 1
CC(C)(C)C(=O)C(Oc1ccc(Cl)cc1)n1cncn1 (stereo not drawn) [Triazolone] |  |  | 39 | 43 | 54 | 58 |  |  | 
COC(=O)N(OC)c1ccccc1COc1ccn(-c2ccc(Cl)cc2)n1 [Pyraclostrobin] |  |  | 42 | 40 | 54 | 63 |  |  | 
CCN(CC)C(C)=O [DEAC, N,N-diethyl acetamide] |  |  |  |  |  |  | stronger |  | 
Abamectin |  |  | 38 | 21 | 50 | 51 |  |  | 

Source: patent publication US11617366B2, “Solvents for agricultural applications and pesticide formulations” (Dow Global Technologies LLC, priority 2017, dated 2023)
